Results taken from patent publication US11578069B2, “Compounds for inhibition of α4 β7 integrin” (Gilead Sciences, Inc., priority 2019, dated 2023).

Columns and labels:
α4β1 integrin = target: T1, α4β1 integrin (Homo sapiens, UniProt P05556+P13612); assay: α4β1 Cell Capture Assay; type: cell-based; details: capture of α4β1 expressing Jurkat cells on VCAM-1 extracellular domain-coated plate
T1 construct: monitoring the capture of α4β1 expressing cells; endogenous in cells; host or cells: Jurkat
Method: The potency of inhibitors in preventing α4β1 integrin interaction with VCAM-1 was measured by monitoring the capture of α4β1 expressing cells to a recombinant VCAM-1 extracellular domain-coated plate.
384-well plates (Corning 3702) were coated with VCAM-1 extracellular domain by dispensing 20 μL of VCAM-1 at 0.5 μg/ml per well and incubating overnight at 4° C. The plates were then washed with PBS and blocked with 3% BSA for 2 hours before being washed again.
(§1) Jurkat cells were spun down and re-suspended in assay medium (DMEM+0.5% FBS+0.5 mM MnCl2) at a density of 0.5×10^6 cells/ml. The cells were then dispensed (60 μL/well) to a 384-well plate (Greiner 781280) that was previously spotted with 60 nL of test compound per well. The plates were incubated at 37° C. for 1 hour. 50 μL of cells were transferred to the blocked, VCAM-1-coated plates and incubated for 30 minutes at 37° C. 10 μl of 12% glutaraldehyde containing Hoechst 33342 (0.06 mg/mL) was added to the cells (2% glutaraldehyde and 0.01 mg/ml Hoechst 33342 final concentrations). The plates were incubated for 90 minutes at room temperature. The plates were then washed 3 times with 70 μL of PBS per well and imaged on a Cellomics ArrayScan instrument. The cells that were bound to the plate were counted and plotted against the compound concentration to determine the EC50 of the test compounds.

α4β7 integrin = target: T2, α4β7 integrin (Homo sapiens, UniProt P13612+P26010); assay: α4β7 Integrin Cell Capture Assay; type: cell-based; details: capture of α4β7 integrin expressing RPM18866 cells on MadCAM-1 extracellular domain-coated plate
T2 construct: monitoring the capture of α4β7 integrin expressing cells; endogenous in cells; host or cells: RPMI8866
T2 sequence (P13612 34-1032): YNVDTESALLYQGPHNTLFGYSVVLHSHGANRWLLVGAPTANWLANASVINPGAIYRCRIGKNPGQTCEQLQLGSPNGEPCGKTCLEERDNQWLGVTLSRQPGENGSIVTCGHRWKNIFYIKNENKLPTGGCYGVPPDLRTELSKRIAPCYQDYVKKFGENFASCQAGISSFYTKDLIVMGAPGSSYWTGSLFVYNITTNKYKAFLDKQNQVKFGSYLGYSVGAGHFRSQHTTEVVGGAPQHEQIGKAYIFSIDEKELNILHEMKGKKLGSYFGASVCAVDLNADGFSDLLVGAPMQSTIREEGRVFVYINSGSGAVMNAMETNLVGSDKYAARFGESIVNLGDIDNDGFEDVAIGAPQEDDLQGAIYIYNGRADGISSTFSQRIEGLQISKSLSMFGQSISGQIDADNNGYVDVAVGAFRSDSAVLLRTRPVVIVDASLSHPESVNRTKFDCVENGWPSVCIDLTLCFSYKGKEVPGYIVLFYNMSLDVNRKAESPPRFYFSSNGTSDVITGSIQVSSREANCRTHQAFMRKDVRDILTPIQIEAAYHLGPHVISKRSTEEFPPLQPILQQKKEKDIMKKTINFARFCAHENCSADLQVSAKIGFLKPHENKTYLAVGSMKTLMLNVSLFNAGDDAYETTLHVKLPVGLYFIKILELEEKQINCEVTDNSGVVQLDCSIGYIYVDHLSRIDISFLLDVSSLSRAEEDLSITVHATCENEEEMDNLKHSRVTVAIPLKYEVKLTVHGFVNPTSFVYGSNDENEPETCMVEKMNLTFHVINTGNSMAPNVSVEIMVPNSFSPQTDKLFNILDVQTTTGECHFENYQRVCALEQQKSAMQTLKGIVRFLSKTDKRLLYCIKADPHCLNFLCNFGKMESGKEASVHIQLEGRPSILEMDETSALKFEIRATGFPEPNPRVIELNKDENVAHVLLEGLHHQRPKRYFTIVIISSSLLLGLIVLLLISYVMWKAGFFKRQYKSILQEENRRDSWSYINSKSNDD
T2 sequence (P26010 20-798): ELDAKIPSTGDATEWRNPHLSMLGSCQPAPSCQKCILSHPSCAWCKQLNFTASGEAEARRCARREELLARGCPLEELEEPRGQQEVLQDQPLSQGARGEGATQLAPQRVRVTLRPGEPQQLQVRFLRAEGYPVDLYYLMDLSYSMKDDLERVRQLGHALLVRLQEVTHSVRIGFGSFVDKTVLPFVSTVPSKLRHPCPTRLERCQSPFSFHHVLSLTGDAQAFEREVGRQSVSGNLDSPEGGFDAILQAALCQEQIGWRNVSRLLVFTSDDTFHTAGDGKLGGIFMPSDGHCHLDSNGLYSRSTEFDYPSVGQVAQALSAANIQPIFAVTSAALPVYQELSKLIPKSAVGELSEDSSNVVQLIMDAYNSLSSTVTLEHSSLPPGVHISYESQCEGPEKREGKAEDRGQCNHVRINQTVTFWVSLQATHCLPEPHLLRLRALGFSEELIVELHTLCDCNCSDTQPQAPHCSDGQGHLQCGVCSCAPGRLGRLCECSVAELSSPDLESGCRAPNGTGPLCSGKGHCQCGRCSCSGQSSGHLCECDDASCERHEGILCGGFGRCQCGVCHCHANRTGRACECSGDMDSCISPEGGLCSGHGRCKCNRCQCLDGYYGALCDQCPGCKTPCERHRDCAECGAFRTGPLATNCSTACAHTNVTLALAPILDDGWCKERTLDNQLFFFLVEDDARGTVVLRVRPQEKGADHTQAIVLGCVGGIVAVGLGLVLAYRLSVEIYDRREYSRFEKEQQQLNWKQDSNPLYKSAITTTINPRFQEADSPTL
Method: The potency of inhibitors in preventing α4β7 integrin interaction with MadCAM-1 was measured by monitoring the capture of α4β7 integrin expressing cells on a recombinant MadCAM-1 extracellular domain-coated plate.
384-well plates (Corning 3702) were coated with MadCAM-1 extracellular domain by dispensing 20 μL of MAdCAM-1 at 1.0 μg/mL per well and incubating overnight at 4° C. The plates were then washed with PBS and blocked with 3% BSA for 2 hours before being washed again.
as §1, with “RPM18866” for “Jurkat”, “cells/mL.” for “cells/ml.”, “MadCAM-1-coated” for “VCAM-1-coated”, “μL” for “μl”, “mg/mL” for “mg/ml Hoechst 33342”

T1 sequence (P05556 21-798, one chain of several): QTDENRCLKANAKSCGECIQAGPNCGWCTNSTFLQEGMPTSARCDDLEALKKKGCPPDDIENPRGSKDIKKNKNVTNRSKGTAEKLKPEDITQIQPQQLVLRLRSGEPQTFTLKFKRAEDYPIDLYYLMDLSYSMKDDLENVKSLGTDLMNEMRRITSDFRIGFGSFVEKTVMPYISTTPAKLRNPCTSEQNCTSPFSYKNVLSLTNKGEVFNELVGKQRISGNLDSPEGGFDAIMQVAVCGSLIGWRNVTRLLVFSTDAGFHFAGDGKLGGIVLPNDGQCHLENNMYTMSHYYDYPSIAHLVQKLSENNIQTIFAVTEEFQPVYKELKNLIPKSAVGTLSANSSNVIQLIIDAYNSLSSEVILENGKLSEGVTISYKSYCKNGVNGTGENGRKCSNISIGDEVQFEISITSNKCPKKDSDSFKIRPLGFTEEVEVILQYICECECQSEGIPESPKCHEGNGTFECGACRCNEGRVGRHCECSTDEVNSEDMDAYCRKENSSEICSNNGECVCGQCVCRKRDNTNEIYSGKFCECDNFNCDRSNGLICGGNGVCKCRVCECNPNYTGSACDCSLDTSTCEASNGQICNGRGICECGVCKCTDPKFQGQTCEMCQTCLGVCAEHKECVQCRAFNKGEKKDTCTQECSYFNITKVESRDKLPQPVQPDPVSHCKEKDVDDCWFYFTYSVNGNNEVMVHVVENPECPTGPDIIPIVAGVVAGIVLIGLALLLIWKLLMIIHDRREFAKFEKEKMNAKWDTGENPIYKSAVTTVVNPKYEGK

Cn1c(=O)n(-c2ccc(C[C@H](NC(=O)c3c(F)cc(N4CCOC[C@@H]4C(F)(F)F)cc3F)C(=O)O)cn2)c(=O)c2ccncc21 [Example 13, (S)-2-(2,6-difluoro-4-((R)-3-(trifluoromethyl)morpholino)benzamido)-3-(6-(1-methyl-2,4-dioxo-1,4-dihydropyrido[3,4-d]pyrimidin-3(2H)-yl)pyridin-3-yl)propanoic acid]
EC50 (α4β1 integrin; Table 1): 38.9 nM | EC50 (α4β7 integrin; Table 1): 0.8 nM

Cc1cc(N2CCOC[C@@H]2C(F)(F)F)cc(F)c1C(=O)N[C@@H](Cc1ccc(-n2c(=O)c3ccncc3n(C)c2=O)nc1)C(=O)O [Example 15, (S)-2-(2-fluoro-6-methyl-4-((R)-3-(trifluoromethyl)morpholino)benzamido)-3-(6-(1-methyl-2,4-dioxo-1,4-dihydropyrido[3,4-d]pyrimidin-3(2H)-yl)pyridin-3-yl)propanoic acid]
EC50 (α4β1 integrin; Table 1): 10.6 nM | EC50 (α4β7 integrin; Table 1): 0.21 nM

CC[C@@H](Nc1cc(F)c(C(=O)N[C@@H](Cc2ccc(-n3c(=O)c4ccncc4n(C)c3=O)nc2)C(=O)O)c(F)c1F)C(F)(F)F [Example 17, (S)-3-(6-(1-methyl-2,4-dioxo-1,4-dihydropyrido[3,4-d]pyrimidin-3(2H)-yl)pyridin-3-yl)-2-(2,3,6-trifluoro-4-(((R)-1,1,1-trifluorobutan-2-yl)amino)benzamido)propanoic acid]
EC50 (α4β1 integrin; Table 1): 58.9 nM | EC50 (α4β7 integrin; Table 1): 0.7 nM

CC[C@@H](N(c1cc(F)c(C(=O)N[C@@H](Cc2ccc(-n3c(=O)c4ccncc4n(C)c3=O)nc2)C(=O)O)c(F)c1)C1CC1)C(F)(F)F [Example 19, (S)-2-(4-(cyclopropyl((R)-1,1,1-trifluorobutan-2-yl)amino)-2,6-difluorobenzamido)-3-(6-(1-methyl-2,4-dioxo-1,4-dihydropyrido[3,4-d]pyrimidin-3(2H)-yl)pyridin-3-yl)propanoic acid]
EC50 (α4β1 integrin; Table 1): 127 nM | EC50 (α4β7 integrin; Table 1): 2 nM

Cc1cc(N2CCOC[C@@H]2C(F)(F)F)cc(F)c1C(=O)N[C@@H](Cc1ccc(-n2c(=O)c3ccncc3n(C)c2=O)cn1)C(=O)O [Example 23, (S)-2-(2-fluoro-6-methyl-4-((R)-3-(trifluoromethyl)morpholino)benzamido)-3-(5-(1-methyl-2,4-dioxo-1,4-dihydropyrido[3,4-d]pyrimidin-3(2H)-yl)pyridin-2-yl)propanoic acid]
EC50 (α4β1 integrin; Table 1): 9.8 nM | EC50 (α4β7 integrin; Table 1): 0.2 nM

Cc1cc(N2CCOC[C@@H]2C(F)(F)F)cc(F)c1C(=O)N[C@@H](Cc1ccc(-n2c(=O)c3ccncc3n(C)c2=O)cc1)C(=O)O [Example 25, (S)-2-(2-fluoro-6-methyl-4-((R)-3-(trifluoromethyl)morpholino)benzamido)-3-(4-(1-methyl-2,4-dioxo-1,4-dihydropyrido[3,4-d]pyrimidin-3(2H)-yl)phenyl)propanoic acid]
EC50 (α4β1 integrin; Table 1): 3.4 nM | EC50 (α4β7 integrin; Table 1): 0.1 nM

COc1cc(C[C@H](NC(=O)c2c(C)cc(N3CCOC[C@@H]3C(F)(F)F)cc2F)C(=O)O)ccc1-n1c(=O)c2ccncc2n(C)c1=O [Example 27, (S)-2-(2-fluoro-6-methyl-4-((R)-3-(trifluoromethyl)morpholino)benzamido)-3-(3-methoxy-4-(1-methyl-2,4-dioxo-1,4-dihydropyrido[3,4-d]pyrimidin-3(2H)-yl)phenyl)propanoic acid]
EC50 (α4β1 integrin; Table 1): 8.6 nM | EC50 (α4β7 integrin; Table 1): 0.1 nM

CCOCc1cc(OC)c(-c2ccc(C[C@H](NC(=O)c3c(F)cc(N[C@H](c4ccccc4)C(F)(F)F)cc3F)C(=O)O)cc2)c(OC)c1 [Example 28]
EC50 (α4β1 integrin; Table 2): 70.7 nM | EC50 (α4β7 integrin; Table 2): 7.2 nM

Cc1cc(C[C@H](NC(=O)c2c(F)cc(N3CCOC[C@@H]3C(F)(F)F)cc2F)C(=O)O)ccc1-c1c(C(F)(F)F)cc(C)n(C)c1=O [Example 29]
EC50 (α4β1 integrin; Table 2): 29 nM | EC50 (α4β7 integrin; Table 2): 0.6 nM

COc1cc(C)n(C)c(=O)c1-c1ccc(C[C@H](NC(=O)c2c(F)cc(N3CCOC[C@@H]3C(F)(F)F)cc2F)C(=O)O)cc1 [Example 30]
EC50 (α4β1 integrin; Table 2): 10.1 nM | EC50 (α4β7 integrin; Table 2): 0.5 nM

Cc1cc(C[C@H](NC(=O)c2c(C)cc(N3CCOC[C@@H]3C(F)(F)F)cc2F)C(=O)O)ccc1-c1c(C)n(C)c(=O)n(C)c1=O [Example 31]
EC50 (α4β1 integrin; Table 2): 11.6 nM | EC50 (α4β7 integrin; Table 2): 0.2 nM

CC[C@@H](Nc1cc(F)c(C(=O)N[C@@H](Cc2ccc(-c3c(C)n(C)c(=O)n(C)c3=O)cc2)C(=O)O)c(F)c1)C(F)(F)F [Example 32]
EC50 (α4β1 integrin; Table 2): 14.4 nM | EC50 (α4β7 integrin; Table 2): 1.2 nM

CC[C@@H](Nc1cc(F)c(C(=O)N[C@@H](Cc2ccc(-n3c(=O)c4cc(N(C)C)ccc4n(C)c3=O)cc2)C(=O)O)c(F)c1)C(F)(F)F [Example 33]
EC50 (α4β1 integrin; Table 2): 105 nM | EC50 (α4β7 integrin; Table 2): 2.5 nM

CC[C@@H](Nc1cc(F)c(C(=O)N[C@@H](Cc2ccc(-c3c(C)c4cc(F)ccc4n(C)c3=O)cc2)C(=O)O)c(F)c1)C(F)(F)F [Example 34]
EC50 (α4β1 integrin; Table 2): 61.4 nM | EC50 (α4β7 integrin; Table 2): 3.2 nM

Cn1c(=O)c(-c2ccc(C[C@H](NC(=O)c3c(F)cc(N4CCOC[C@@H]4C(F)(F)F)cc3F)C(=O)O)cc2)cc2cnccc21 [Example 35]
EC50 (α4β1 integrin; Table 2): 34.1 nM | EC50 (α4β7 integrin; Table 2): 1.1 nM

CN(C)c1ccc2c(c1)c(=O)n(-c1ccc(C[C@H](NC(=O)c3c(F)cc(N4CCOC[C@@H]4C(F)(F)F)cc3F)C(=O)O)cc1)c(=O)n2C [Example 36]
EC50 (α4β1 integrin; Table 2): 27.3 nM | EC50 (α4β7 integrin; Table 2): 1.2 nM
